Assay results from patent US20070203114A1, “7,8,9,10-Tetrahydro-Imidazo [2,1-A] Isochinolines” (priority 2004, published 2007).

test system: not given; assay: not given; conditions: not given

melting point	Compound
266 to 268 °C	CNC(=O)c1cn2c(C)c(C)nc2c2c1CCC(c1ccccc1)C2 (stereo not shown) [Example 8, 2,3-Dimethyl-9-phenyl-7,8,9,10-tetrahydro-imidazo[2,1-a]isoquinoline-6-carboxylic acid methylamide]
343 to 345 °C (dec.)	Cc1nc2c3c(c(C(=O)O)cn2c1C)CCC(c1ccccc1)C3 (stereo not shown) [Example 2, 2,3-Dimethyl-9-phenyl-7,8,9,10-tetrahydro-imidazo[2,1-a]isoquinoline-6-carboxylic acid]
165 to 167 °C	CCOC(=O)c1cn2c(C)c(C)nc2c2c1CCC(c1ccccc1)C2 (stereo not shown) [Example 1, 2,3-Dimethyl-9-phenyl-7,8,9,10-tetrahydro-imidazo[2,1-a]isoquinoline-6-carboxylic acid ethyl ester]
290 to 292 °C	Cc1nc2c3c(c(CO)cn2c1C)CCC(c1ccccc1)C3 (stereo not shown) [Example 10, (2,3-Dimethyl-9-phenyl-7,8,9,10-tetrahydro-imidazo[2,1-a]isoquinolin-6-yl)-methanol]

test system: pentagastrin-stimulated acid secretion of the perfused rat stomach; assay: Secretion-inhibiting action on the perfused rat stomach (pentagastrin-stimulated acid secretion); type: in vivo; conditions: anesthetized CD rat, female; dose 3 μmol/kg i.d. (intraduodenal); pentagastrin 1 μg/kg i.v. continuous infusion
Description: Testing of the Secretion-Inhibiting Action on the Perfused Rat Stomach
In Table A which follows, the influence of the compounds according to the invention on the pentagastrin-stimulated acid secretion of the perfused rat stomach after intraduodenal administration in vivo is shown.
The abdomen anesthetized rats (CD rat, female, 200-250 g; 1.5 g/kg i.m. urethane) was opened after tracheotomy by a median upper abdominal incision and a PVC catheter was fixed transorally in the esophagus and another via the pylorus such that the ends of the tubes just projected into the gastric lumen. The catheter leading from the pylorus led outward into the right abdominal wall through a side opening.
After thorough rinsing (about 50-100 ml), warm (37° C.) physiological NaCl solution was continuously passed through the stomach (0.5 ml/min, pH 6.8-6.9; Braun-Unita I). The pH (pH meter 632, glass electrode EA 147; φ=5 mm, Metrohm) and, by titration with a freshly prepared 0.01N NaOH solution to pH 7 (Dosimat 665 Metrohm), the secreted HCl were determined in the effluent in each case collected at an interval of 15 minutes.
The gastric secretion was stimulated by continuous infusion of 1 μg/kg (=1.65 ml/h) of i.v. pentagastrin (left femoral vein) about 30 min after the end of the operation (i.e. after determination of 2 preliminary fractions). The substances to be tested were administered intraduodenally in a 2.5 ml/kg liquid volume 60 min after the start of the continuous pentagastrin infusion.
The body temperature of the animals was kept at a constant 37.8-38° C. by infrared irradiation and heat pads (automatic, stepless control by means of a rectal temperature sensor).

Compound	Inhibition of acid secretion [%]
Cc1nc2c3c(c(C(=O)N(C)C)cn2c1C)CCC(c1ccccc1)C3 (stereo not shown) [Example 3, 2,3-Dimethyl-9-phenyl-7,8,9,10-tetrahydro-imidazo[2,1-a]isoquinoline-6-carboxylic acid dimethylamide]	>40
Cc1nc2c3c(c(C(=O)N4CCCC4)cn2c1C)CCC(c1ccccc1)C3 (stereo not shown) [Example 4, (2,3-Dimethyl-9-phenyl-7,8,9,10-tetrahydro-imidazo[2,1-a]isoquinolin-6-yl)-pyrrolidin-1-yl-methanone]	>40
CNC(=O)c1cn2c(C)c(C)nc2c2c1CCC(c1ccccc1)C2 (stereo not shown) [Example 8, 2,3-Dimethyl-9-phenyl-7,8,9,10-tetrahydro-imidazo[2,1-a]isoquinoline-6-carboxylic acid methylamide]	>40
Cc1nc2c3c(c(C(=O)N4CCOCC4)cn2c1C)CCC(c1ccccc1)C3 (stereo not shown) [Example 7, (2,3-Dimethyl-9-phenyl-7,8,9,10-tetrahydro-imidazo[2,1-a]isoquinolin-6-yl)-morpholin-4-yl-methanone]	>40
COCCNC(=O)c1cn2c(C)c(C)nc2c2c1CCC(c1ccccc1)C2 (stereo not shown) [Example 6, 2,3-Dimethyl-9-phenyl-7,8,9,10-tetrahydro-imidazo[2,1-a]isoquinoline-6-carboxylic acid (2-methoxy-ethyl)-amide]	>40
COCc1cn2c(C)c(C)nc2c2c1CCC(c1ccccc1)C2 (stereo not shown) [Example 11, 6-Methoxymethyl-2,3-dimethyl-9-phenyl-7,8,9,10-tetrahydro-imidazo[2,1]isoquinoline]	>40
